Data from ChEMBL document CHEMBL1201862, “PubChem BioAssay data set” (2004).
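Method: 48-hour compound exposure of cells in 96-well plates, five concentrations, linear interpolation of endpoints. GI50 is the concentration that inhibits growth by half.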 Calls of active or inactive are those of the source. Cut-off read from the data, not from the text of the source: active = GI50 up to about 1.1 µM and inactive = higher.

Tests used:
Experiment in all cases: NCI-60 cell line screen, 48 h
OVCAR-3 = system: OVCAR-3
OVCAR-5 = system: OVCAR-5
KM12 = system: KM12
IGROV-1 = system: IGROV-1
HCT-15 = system: HCT-15
UACC-62 = system: UACC-62
NCI-H460 = system: NCI-H460
SK-MEL-5 = system: SK-MEL-5
MDA-MB-231 = system: MDA-MB-231
Malme-3M = system: Malme-3M
SK-OV-3 = system: SK-OV-3
HT-29 = system: HT-29
TK-10 = system: TK-10
SN12C = system: SN12C
DU-145 = system: DU-145
HOP-92 = system: HOP-92
CCRF-CEM = system: CCRF-CEM
SW-620 = system: SW-620
CAKI-1 = system: CAKI-1
SF-539 = system: SF-539

Compound	GI50 (OVCAR-3)	GI50 (OVCAR-5)	GI50 (KM12)	GI50 (IGROV-1)	GI50 (HCT-15) [µM]	GI50 (UACC-62)	GI50 (NCI-H460)	GI50 (SK-MEL-5)	GI50 (MDA-MB-231)	GI50 (Malme-3M)	GI50 (SK-OV-3)	GI50 (HT-29)	GI50 (TK-10)	GI50 (SN12C)	GI50 (DU-145)	GI50 (HOP-92)	GI50 (CCRF-CEM)	GI50 (SW-620)	GI50 (CAKI-1)	GI50 (SF-539)
CO[C@@H]1C[C@H](OC(N)=O)[C@@H]2C=C[C@@H]3/C=C(C)/C=C/[C@@H](C)[C@H](/C(C)=C/[C@@H](C)NC(C)=O)OC(=O)/C=C/C=C(C)\C=C\[C@]3(C)[C@@H]2C1 [SUPERSTOLIDE B]	< 0.005 µM (active)	0.466 µM (active)	< 0.005 µM (active)	< 0.005 µM (active)	0.00518	< 0.005 µM (active)	< 0.005 µM (active)	< 0.005 µM (active)	< 0.005 µM (active)	< 0.005 µM (active)	< 0.005 µM (active)	< 0.005 µM (active)	0.0718 µM (active)	< 0.005 µM (active)	< 0.005 µM (active)	< 0.005 µM (active)	0.107 µM (active)	< 0.005 µM (active)	< 0.005 µM (active)	< 0.005 µM (active)
O=C(N/N=C\c1ccc([N+](=O)[O-])s1)c1ccncc1	2.82 µM (inactive)	29.9 µM (inactive)	10 µM (inactive)	10.3 µM (inactive)	5.27	10.7 µM (inactive)	6.65 µM (inactive)	3.25 µM (inactive)	18.8 µM (inactive)	8.18 µM (inactive)	38.5 µM (inactive)	4.13 µM (inactive)	23.1 µM (inactive)	8.65 µM (inactive)	20.7 µM (inactive)	15.6 µM (inactive)	6.52 µM (inactive)	10.8 µM (inactive)	27.9 µM (inactive)	6.28 µM (inactive)
CC(=O)N1C(CCc2ccccc2)CC(C)(C=O)C1Cc1ccc(O[Si](C(C)C)(C(C)C)C(C)C)cc1 (stereo not given)	4.8 µM (inactive)	14.7 µM (inactive)	3.02 µM (inactive)	4.9 µM (inactive)	3.03	4.68 µM (inactive)	2.96 µM (inactive)	3.4 µM (inactive)	4.79 µM (inactive)	14.2 µM (inactive)	13.4 µM (inactive)	2.86 µM (inactive)	3.68 µM (inactive)	3.29 µM (inactive)	5.61 µM (inactive)	9.71 µM (inactive)	1.87 µM (inactive)	3.21 µM (inactive)	3.05 µM (inactive)	2.43 µM (inactive)
NC(=S)Nc1nc(=S)[nH]c2c1SC1=N/C(=C\c3ccco3)C(=O)N12	> 89.7 µM (inactive)	> 100 µM (inactive)	98.6 µM (inactive)	45.2 µM (inactive)	48.8	> 100 µM (inactive)	68.7 µM (inactive)	> 82.8 µM (inactive)	> 100 µM (inactive)	44.7 µM (inactive)	> 100 µM (inactive)	> 60.4 µM (inactive)	> 100 µM (inactive)	> 100 µM (inactive)	> 100 µM (inactive)	> 100 µM (inactive)	38.2 µM (inactive)	> 100 µM (inactive)	> 82.4 µM (inactive)	> 77.6 µM (inactive)
Nc1nc(SCC(=O)O)nc(O)c1N	> 100 µM (inactive)	> 100 µM (inactive)	> 100 µM (inactive)	> 100 µM (inactive)	> 100	> 100 µM (inactive)	> 100 µM (inactive)	> 100 µM (inactive)	> 100 µM (inactive)	> 100 µM (inactive)	> 100 µM (inactive)	> 100 µM (inactive)	> 100 µM (inactive)	13.3 µM (inactive)	> 100 µM (inactive)	> 100 µM (inactive)	1.32 µM (inactive)	31 µM (inactive)	> 100 µM (inactive)	> 100 µM (inactive)
